Assay results taken from US12559474B2, “Triazine derivatives having virus replication inhibitory activity and pharmaceutical composition comprising the same” (priority 2021, dated 2026).
Read-outs that look alike come from different tables or passages of the source.

Legend:
[1] = target: SARS-CoV-2 3CL protease (Severe acute respiratory syndrome coronavirus 2, UniProt P0DTD1); assay: biochemical; details: 50% SARS-CoV-2 3CL protease inhibitory concentration, read-out: IC50
[2] = tested on: SARS-CoV-2; assay: microbe, parasite or virus in culture; format: cell-based; details: Severe acute respiratory syndrome coronavirus 2, VeroE6/TMPRSS2, 72 h, 50% SARS-CoV-2 infected cell death inhibitory concentration, VeroE6/TMPRSS2 cells, 3 days culture

| SMILES | IC50 ([1]; given as class symbols) [µM] | EC50 ([2]; class symbols) [µM] | IC50 ([1]; RapidFire MS) [µM] | EC50 ([2]; CellTiter-Glo 2.0) [µM] |
| --- | --- | --- | --- | --- |
| CNc1nc2ccc(Nc3nc(=O)n(-c4cncc(C)c4)c(=O)n3Cc3cc(C#N)c(F)cc3C)cc2s1 [II-0420] | < 0.1 | < 1 | – | – |
| Cc1cncc(-n2c(=O)nc(Nc3ccc4nn(C)cc4c3)n(Cc3cc(C#N)c(F)cc3C)c2=O)c1 [II-0290] | – | – | 0.0035 | 0.21 |
| Cc1cncc(-n2c(=O)nc(Nc3cc4oc(C)nc4cc3Cl)n(Cc3ccc(F)c(C#N)c3)c2=O)c1 [II-0108] | < 0.1 | 1 to 10 | – | – |
| COCc1cncc(-n2c(=O)nc(Nc3ccc4c(c3)CCO4)n(Cc3ccc(F)c(C#N)c3)c2=O)c1 [II-0271] | < 0.1 | 1 to 10 | – | – |
| Cn1cc2cc(Nc3nc(=O)n(-c4cncc(C#N)c4)c(=O)n3Cc3cc(F)c(F)c(Cl)c3)c(Cl)cc2n1 [II-0489] | < 0.1 | 1 to 10 | – | – |
| O=c1nc(Nc2cc3cn(CCO)nc3cc2Cl)n(Cc2cc(F)c(F)cc2F)c(=O)n1-c1cncc2ccccc12 [II-0032] | < 0.1 | < 1 | – | – |
| CC(C)Nc1nc2cc(Cl)c(Nc3nc(=O)n(Cc4ncn(C)n4)c(=O)n3Cc3cc(F)c(F)cc3F)cc2s1 [II-0037] | < 0.1 | 1 to 10 | – | – |
| Cc1cncc(-n2c(=O)nc(Nc3cc4cn(C)nc4cc3Cl)n(Cc3cc(F)c(F)cc3CCC(C)(C)O)c2=O)c1 [II-0073] | < 0.1 | 1 to 10 | – | – |
| Cc1cncc(-n2c(=O)nc(NC3CCC3)n(Cc3cc(F)c(F)c(F)c3)c2=O)c1 [II-0227] | – | < 1 | 0.63 | – |
| Cn1cc2cc(Nc3nc(=O)n(-c4cncc5c4COC5)c(=O)n3Cc3cc(Cl)c(F)cc3F)c(Cl)cc2n1 [II-0499] | – | – | 0.012 | 0.68 |
| COCCn1cc2cc(Nc3nc(=O)n(Cc4ccc[nH]c4=O)c(=O)n3Cc3cc(F)c(F)c(F)c3)c(Cl)cc2n1 [Compound I-0285] | < 0.1 | 1 to 10 | – | – |
| Cc1nc2cc(Nc3nc(=O)n(Cc4ccc[nH]c4=O)c(=O)n3Cc3cc(F)c(F)c(F)c3)c(Cl)cc2o1 [Compound I-0461] | < 0.1 | 1 to 10 | – | – |
| Cc1cncc(-n2c(=O)nc(Nc3cc4cn(C)nc4cc3Cl)n(Cc3cc(C#N)c(F)cc3C)c2=O)c1 [II-0015] | – | – | 0.0015 | 0.035 |
| CC(C)(O)Cn1cc2cc(Nc3nc(=O)n(Cc4cc(Cl)c[nH]c4=O)c(=O)n3Cc3cc(F)c(F)c(F)c3)c(Cl)cc2n1 [Compound I-0455] | < 0.1 | 1 to 10 | – | – |
| Cc1cncc(-n2c(=O)nc(Nc3cc4cn(C)nc4cc3Cl)n(Cc3cc(C#N)ccc3C(F)(F)F)c2=O)c1 [II-0076] | < 0.1 | < 1 | – | – |
| Cc1c2cc(Nc3nc(=O)n(-c4cncc(Cl)c4)c(=O)n3Cc3ccc(F)c(C#N)c3)ccc2nn1C [II-0267] | < 0.1 | 1 to 10 | – | – |
| Cc1c2cc(Nc3nc(=O)n(Cc4ncn(C)n4)c(=O)n3Cc3cc(F)c(F)c(F)c3)c(Cl)cc2nn1C [II-0452] | < 0.1 | 1 to 10 | – | – |
| Cn1cc2cc(Nc3nc(=O)n(Cc4ncccn4)c(=O)n3Cc3cc(F)c(F)c(Cl)c3)c(Cl)cc2n1 [II-0296] | < 0.1 | < 1 | – | – |
| Cn1cnc(Cn2c(=O)nc(Nc3cc4cn(C5CCOCC5)nc4cc3Cl)n(Cc3cc(F)c(F)cc3F)c2=O)n1 [II-0102] | < 0.1 | 1 to 10 | – | – |
| COc1c2cc(Nc3nc(=O)n(Cc4ncn(C)n4)c(=O)n3Cc3cc(F)c(F)cc3F)c(Cl)cc2nn1C [II-0454] | < 0.1 | 1 to 10 | – | – |
| Cn1cc2cc(Nc3nc(=O)n(-c4cncc(C#N)c4)c(=O)n3Cc3cc(F)c(F)c(F)c3)c(Cl)cc2n1 [II-0491] | < 0.1 | 1 to 10 | – | – |
| Cn1cnc(Cn2c(=O)nc(Nc3cc4cn(CCO)nc4cc3Cl)n(Cc3cc(Cl)c(F)cc3F)c2=O)n1 [II-0300] | < 0.1 | 1 to 10 | – | – |
| COc1ccc(Nc2nc(=O)n(Cc3ccc[nH]c3=O)c(=O)n2Cc2cc(F)c(F)c(F)c2)c(OC)c1 [Compound I-0042] | < 0.1 | 1 to 10 | – | – |
| Cc1cncc(-n2c(=O)nc(Nc3cc4sc(C)nc4cc3C)n(Cc3ccc(F)c(C#N)c3)c2=O)c1 [II-0191] | < 0.1 | < 1 | – | – |
| COc1ccc(Nc2nc(=O)n(Cc3cc(Br)c[nH]c3=O)c(=O)n2Cc2cc(F)c(F)c(F)c2)cc1 [Compound I-0310] | < 0.1 | 1 to 10 | – | – |

| SMILES | IC50 ([1]; given as class symbols) [µM] | EC50 ([2]; class symbols) [µM] | IC50 ([1]; RapidFire MS) [µM] | EC50 ([2]; CellTiter-Glo 2.0) [µM] |
| --- | --- | --- | --- | --- |
| Cc1cncc(-n2c(=O)nc(N3CCC(C)(C)CC3)n(Cc3cc(F)c(F)c(F)c3)c2=O)c1 [II-0222] | < 0.1 | < 1 | – | – |
| Cc1cncc(-n2c(=O)nc(Nc3cc4c(cc3Cl)OCCC4)n(Cc3ccc(F)c(C#N)c3)c2=O)c1 [II-0144] | < 0.1 | < 1 | – | – |
| Cn1cc2cc(Nc3nc(=O)n(Cc4ncccn4)c(=O)n3Cc3cc(F)c(F)cc3F)c(Cl)cc2n1 [II-0245] | < 0.1 | < 1 | – | – |
| Cn1cnc(Cn2c(=O)nc(Nc3cc4cn(CC(=O)OC(C)(C)C)nc4cc3Cl)n(Cc3cc(F)c(F)c(Cl)c3)c2=O)n1 [II-0311] | < 0.1 | 1 to 10 | – | – |
| CNc1nc2cc(Cl)c(Nc3nc(=O)n(Cc4ncn(C)n4)c(=O)n3Cc3cc(F)c(F)c(Cl)c3)cc2o1 [II-0059] | < 0.1 | 1 to 10 | – | – |
| COc1ccc(Nc2nc(=O)n(Cc3ccc[nH]c3=O)c(=O)n2Cc2cc(F)c(F)c(Cl)c2)cc1 [Compound I-0254] | < 0.1 | 1 to 10 | – | – |
| Cc1cncc(-n2c(=O)nc(Nc3cc4cn(CC5CC5)nc4cc3Cl)n(Cc3ccc(F)c(C#N)c3)c2=O)c1 [II-0345] | < 0.1 | < 1 | – | – |
| COc1ccc(Nc2nc(=O)n(-c3cccnc3)c(=O)n2Cc2cc(F)c(F)c(F)c2)cc1 [Compound I-0135] | 0.1 to 1 | 1 to 10 | – | – |
| O=c1[nH]cc(F)cc1Cn1c(=O)nc(Nc2cc3c(cc2Cl)OCC3)n(Cc2cc(F)c(F)cc2F)c1=O [II-0022] | < 0.1 | < 1 | – | – |
| COc1ccc(Nc2nc(=O)n(Cc3ccc(C)[nH]c3=O)c(=O)n2Cc2cc(F)c(F)c(F)c2)cc1 [Compound I-0358] | 0.1 to 1 | – | 0.12 | 7.45 |
| Cc1cncc(-n2c(=O)nc(Nc3ccc4nn(C)nc4c3)n(Cc3ccc(F)c(C#N)c3)c2=O)c1 [II-0183] | < 0.1 | < 1 | – | – |
| CNc1nc2cc(F)c(Nc3nc(=O)n(-c4cncc(Cl)c4)c(=O)n3Cc3ccc(F)c(C#N)c3)cc2s1 [II-0263] | < 0.1 | 1 to 10 | – | – |
| CCc1nc2cc(Cl)c(Nc3nc(=O)n(Cc4ncn(C)n4)c(=O)n3Cc3cc(Cl)c(F)cc3F)cc2s1 [II-0260] | < 0.1 | < 1 | – | – |
| N#Cc1cc(Cn2c(Nc3ccc4c(c3)CCO4)nc(=O)n(-c3cncc4ccccc34)c2=O)cc(F)c1F [Compound I-0481] | – | – | 0.0027 | 0.0432 |
| Cn1cc2cc(Nc3nc(=O)n(Cc4ccccn4)c(=O)n3Cc3cc(F)c(F)cc3F)c(Cl)cc2n1 [II-0251] | < 0.1 | < 1 | – | – |
| Cc1cncc(-n2c(=O)nc(Nc3cc4cn(C)nc4cc3Cl)n(Cc3cc(F)ccc3F)c2=O)c1 [II-0199] | < 0.1 | < 1 | – | – |
| Cn1cnc(Cn2c(=O)nc(Nc3cc4cn(CC(F)F)nc4cc3F)n(Cc3cc(F)c(F)cc3F)c2=O)n1 [II-0359] | < 0.1 | 1 to 10 | – | – |
| Cc1cncc(-n2c(=O)nc(Nc3cc4cn(CC(F)F)nc4cc3F)n(Cc3cc(F)c(F)c(F)c3)c2=O)c1 [II-0518] | < 0.1 | 1 to 10 | – | – |
| Cc1ccc(C#N)cc1Cn1c(Nc2ccc3nn(CC(F)(F)F)cc3c2)nc(=O)n(-c2cncc(Cl)c2)c1=O [II-0304] | – | – | 0.0045 | 0.213 |
| COc1ccc(Nc2nc(=O)n(Cc3cc(Cl)c[nH]c3=O)c(=O)n2Cc2cc(F)c(F)c(F)c2)cc1 [Compound I-0069] | < 0.1 | 1 to 10 | – | – |
| Cn1cnc(Cn2c(=O)nc(Nc3cc4cn(C)nc4cc3Cl)n(Cc3ccc(F)c(C#N)c3)c2=O)n1 [II-0286] | < 0.1 | 1 to 10 | – | – |
| Cc1cncc(-n2c(=O)nc(Nc3cc4cn(C)nc4cc3Cl)n(Cc3cc(F)c(F)cc3Cc3cnn(C)c3)c2=O)c1 [II-0018] | < 0.1 | 1 to 10 | – | – |
| Cn1cc2cc(Nc3nc(=O)n(Cc4cc5cccnc5[nH]c4=O)c(=O)n3Cc3cc(F)c(F)c(F)c3)c(Cl)cc2n1 [Compound I-0236] | < 0.1 | < 1 | – | – |
| Cn1cc2cc(Nc3nc(=O)n(-c4cncc(C5CC5)c4)c(=O)n3Cc3ccc(F)c(C#N)c3)c(Cl)cc2n1 [II-0261] | < 0.1 | < 1 | – | – |
